Results on six compounds are retold here after patent US11548894B2, “Benzamide or benzamine compounds useful as anticancer agents for the treatment of human cancers” (The Board of Regents of the University of Texas System, priority 2015, dated 2023).

Each structure is given as a SMILES string. Read-outs that look alike come from different tables or passages of the source.

The subject of data set [1] is Srebp2 target genes in MEFs. Briefly: relative mRNA level of cholesterol biosynthesis pathway target genes in MEFs. Format: cell-based, mouse. The settings on record: vs dmso (FIG. 16). The text has this: (§1) FIG. 16 is a bar graph of relative mRNA level for cholesterol biosynthesis pathway target genes Hmgcs, Hmgcr, FPPS, LDLR; and SREBP1c in mouse embryo fibroblasts (left) and astrocytes (right) treated with compound 4C12 or dmso (negative control).

Data set [2] relates to Srebp2 target genes in Astrocytes. Briefly: relative mRNA level of cholesterol biosynthesis pathway target genes in astrocytes. The format is cell-based, mouse. The settings on record: vs dmso (FIG. 16).
Text: as §1

Data set [3] relates to Mut6 cells. Briefly: cell-based wash-out time course with ATP assay at 96 hours (FIG. 8). Details: species or system mouse. As for the experimental part: FIGS. 8A-B comprising FIG. 8A and FIG. 8B show the identification of molecular changes between 6 hr and 24 hr time points. […] Cells were plated 48 hours before treatment with test compounds Compound 1, Compound 2 and 4C12, and a negative control. Cultures then were treated with the test compound. The media was removed and cells washed twice. Fresh media was added without compound. Data points were 6 hr, 22 hr, 33 hr, 51 hr, 71 hr and continuous. Molecular changes were identified between the 6 hr and 24 hr time points. An ATP assay was performed at 96 hours. On day 2, Cells treated with 4C12 were round-shaped. […] On day 4, 10-20% of the cells were apoptotic. By day 5, 80-90% of the cells were apoptotic.

The subject of data set [4] is Srebp1 target genes. Description: cholesterol gene profile in Mut6 cells, Srebp1 targets. The format is cell-based, mouse. The settings on record: Mut6 cells, 2, 9, 16, 24 and 48 hr vs DMSO. How it is done: (§2) In FIG. 13(a)-(e) Mut6 cells were treated with compound 4C12 for 2, 9, 16, 24, and 48 hr, respectively, and their cholesterol gene profile compared to a DMSO control. […] (f) Western blot. Mut6 cells were treated with vehicle only (−) or with compound 4C12 (+) for 7 hr, 13 hr and 23 hr. Cells were collected, lysed in SDS buffer, subjected to SDS PAGE, and cell proteins transferred to a membrane by a standard protocol.

The subject of data set [5] is Normal astrocytes. Description: ATP viability of normal astrocytes treated with increasing concentrations. Format: cell-based, mouse. The settings on record: increasing concentrations (FIG. 7A). How it is done:
(§3) A luminescence-based Celltiter-Glo® assay was performed to measure cell viability, using ATP levels as the readout. In brief, opaque-walled multiwell plates with Mut6 cells in culture medium (25 μl per well, 384-well plates) were prepared. Control wells containing medium without cells were prepared to obtain a value for background luminescence. Test compounds were added to experimental wells, and incubated according to culture protocol. The plate and its contents were incubated at 37° C., 5% […] for 96 hours. An ATP standard curve was generated immediately prior to adding the CellTiter-Glo® Reagent. A volume of CellTiter-Glo® Reagent equal to the volume of cell culture medium present in each well (25 μl of reagent to 25 μl of medium containing cells for a 384-well plate) was added. The contents were mixed for 2 minutes on an orbital shaker to induce cell lysis. The plate was allowed to incubate at room temperature for 10 minutes to stabilize the luminescent signal and luminescence recorded. (e.g. GloMax®, Lumistar, SPECTROstar, PHERAstar FS).
(§4) Normal astrocytes, Mut6 cells and mouse embryonic fibroblasts were treated with increasing concentrations of compound 4C12. […] Normal astrocytes and MEFs were unaffected by compound 4C12.

Data set [6] concerns Mut6 cells. Description: cholesterol and triglyceride level (pg/cell) in treated cells. The format is cell-based, mouse. As for the experimental part: (§5) FIG. 12A is a bar graph showing cholesterol (pg/cell), and triglyceride (pg/cell) levels in Mut6 cells treated with compound 4C12 for 24 hours and 48 hours, versus a negative control (vehicle only). […] Mut6 cells were treated with compound 4C12 for 24 hours and then mRNA levels for Hydroxymethylglutaryl-CoA synthase(Hmgcs); 3-hydroxy-3-methylglutaryl-coenzyme A reductase (Hmgcr); acetoacetyl-CoA synthetase (AACS); Delta(24)-sterol reductase (Dhcr24); 7-dehydrocholesterol reductase (Dhcr7), Sterol C5-desaturase (Sc5d); Squalene synthase (SS); and farnesyl pyrophosphate (FPP) synthase (FPPS) were determined.
FIG. 17 compares cholesterol level (pg/cell) (Left) and triglyceride level (pg/cell) (Right) in Mut6 cells and in MEF cells treated with compound 4C12 for 24 hours and 48 hours to a negative control (vehicle).

The subject of data set [7] is cholesterol biosynthesis pathway (Srebp2 target genes). Briefly: microarray and mRNA levels of cholesterol synthesis genes in Mut6 cells. Format: cell-based, mouse. As for the experimental part:
Microarray analysis was conducted to identify overrepresented pathways associated with treatment with compound 4C12 for 48 hr.
as §5, §2

Data set [8] has as its system SREBP2. Description: Western blot of SREBP proteins in Mut6 cells. The format is cell-based, mouse. As to conditions: 7 hr, 13 hr and 23 hr. As for the experimental part: as §2
Background: A western blot detects proteins with antibodies after separation by electrophoresis.

Data set [9] has as its system mouse embryonic fibroblasts (MEFs). Briefly: ATP viability of mouse embryonic fibroblasts treated with increasing concentrations. As to conditions: increasing concentrations (FIG. 7A). The format is cell-based. How it is done: as §3, §4
For data set [10], the system named is Mut6 cells (TD-NSC). Briefly: luminescence-based Celltiter-Glo cell viability assay (ATP levels) on Mut6 tumor derived neuronal stem cells. Set-up: species or system mouse. As to conditions: for EC50: Mus musculus. The gist of the method:
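Primary tumor-derived neural stem cells from pooled Mut6 (p53/Pten/Nf1 conditional knockout) GBM tumors, serum-free with defined growth factors. Compound exposure 96 h at 37° C., 5% oxygen; viability by CellTiter-Glo ATP luminescence with cell-free background wells, giving IC50 curves.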

A short description of data set [11]: S9 Metabolism Assay (half-life by substrate depletion). The settings on record: female, ICR/CD-1, S9 fractions, pH 7.5; mouse S9, 2 μM compound; time plotted in min; read-out: S9 T1/2. Format: in vitro ADME. How it is done:
Female ICR/CD-1 mouse S9 fractions were purchased from Celsis/In Vitro Technologies (Baltimore, Md.). 25 μl (0.5 mg) of S9 protein was added to a 15 ml glass screw cap tube. 350 μl of a 50 mM Tris, pH 7.5 solution, containing the compound of interest was added on ice. The final concentration of compound after addition of all reagents was 2 μM. 125 μl of an NADPH-regenerating system (1.7 mg/ml NADP, 7.8 mg/ml glucose-6-phosphate, 6 U/ml glucose-6-phosphate dehydrogenase in 2% w/v NaHCO3/10 mm MgCl2) was added for analysis of Phase I metabolism. Uridine 5′-diphospho-α-D-glucuronic acid (UDPGA 1.9 mg/ml) and 3′-phosphoadenosine-5′-phosphosulphate (PAPS, 100 mg/ml) were additionally added for phase II reactions. The tube was then placed in a 37° C. shaking water bath. At varying time points after addition of phase I and phase II cofactors, the reaction was stopped by the addition of 0.5 ml of methanol containing 0.2% formic acid and 200 ng/ml internal standard (either n-benzylbenzamide or tolbutamide, Sigma, St. Louis, Mo.). The samples were incubated 10′ at RT and then spun at 16,100×g for 5 min in a microcentrifuge. The supernatant was analyzed by LC-MS/MS. Metabolism of 7-ethoxycoumarin was used to monitor […] performance. Analytical methods were developed for each compound using an Applied Biosystems (Foster City, Calif.) 4000-QTrap, a combination triple quadrupole/ion trap instrument. The parent ion and the two most prominent daughter ions were followed to confirm compound identity, although only the most abundant daughter was used for quantitation. A Shimadzu (Columbia, Md.) Prominence LC with Agilent C18 XDB column (5 micron packing; 50×4.6 mm) was used for chromatography.
The method described in McNaney, et al (McNaney, C A, D M Drexler, S Hnatyshyn, T A Zvyaga, J O Knipe, J V Belcastro, and M Sanders. 2008. An automated liquid chromatography-mass spectrometry process to determine metabolic stability half-life and intrinsic clearance of drug candidates by substrate depletion. Assay and Drug Development Technologies 6:121-129. Determination of Plasma and Brain Pharmacokinetics) was used with modification for determination of metabolic stability half-life by substrate depletion. A “% remaining” value was used to assess metabolic stability of a compound over time. The LC/MS/MS peak area of the incubated sample at each time point was divided by the LC/MS/MS peak area of the time 0 (TO) sample and multiplied by 100. The natural Log (LN) of the % remaining of compound was then plotted versus time (in min) and a linear regression curve plotted going through y-intercept at LN(100).

Setting [12] is: Mut6 cells, 24 hours and 48 hours.
Setting [13] is: 96 h, ATP activity as measure of viability, 96 hours, read-out: EC50 (TD-NSC).

As for `CCN1CCCC1CNC(=O)c1ccc(Sc2ccc(F)cc2)c([N+](=O)[O-])c1` (stereo not shown) [4C12, N-((1-ethylpyrrolidin-2-yl)methyl)-4-((4-fluorophenyl)thio)-3-nitrobenzamide], the “Srebp2 target genes mRNA in MEFs” value in data set [1] is on record as “not decreased”. Also, the “Srebp2 target genes mRNA in Astrocytes” value in [2] is reported as “not decreased”. The cell shape entry in data set [3] (day 2) is “round-shaped”. Besides, the cell cycle state result in data set [3] (day 3) is reported as “arrested in G2”. For the same compound, the apoptotic cells in data set [3] (day 4) is 10-20%. Besides, the apoptotic cells in data set [3] (day 5) is on record as 80-90%. Besides, the “relative ATP activity versus time” value in data set [3] (relative to the control (FIG. 8B)) is listed as “reduced ATP activity as a function of time”. Also, in data set [4], the “effect on Srebp1 target genes” value is reported as “not Srebp1 target genes”. The “effect on viability of normal astrocytes” value in data set [5] is “unaffected”. In addition, in [6] (Mut6 cells vs MEF cells, 24 and 48 hours (FIG. 17)), the “specificity of cholesterol decrease” value was “specific to Mut6 tumor cells”. In addition, in data set [6] (setting [12]), the “cholesterol (pg/cell)” value is “decreases” and the “triglyceride (pg/cell)” value is reported as “increases”. Further, the “effect on Srebp2 target genes” value in [7] (Mut6 cells, 2, 9, 16, 24 and 48 hr vs DMSO) is on record as “inhibits Srebp2 target genes”. Moreover, the “relative mRNA of genes for cholesterol synthesis enzymes” value in data set [7] (Mut6 cells, 24 hours) is given as “down-regulated”. The “overrepresented pathways by microarray” value in [7] (treatment for 48 hr) is “deregulates the cholesterol biosynthesis pathway”. For the same compound, the “SREBP2 protein (Western blot)” value in [8] is “effective to decrease SREBP2 protein”. Besides, the “effect on viability of MEFs” value in [9] is “unaffected”. Besides, the EC50 in [10] (relative ATP activity versus concentration (FIG. 7A), read-out: ED50 against Mut6 cells) came to 50 nM. Also, in data set [10] (Mut6 cells (FIG. 15(b))), the “compound-induced cell-death with addition of cholesterol” value was “inhibits”. Further, the “sensitivity after knock-down of Insig1/Insig2” value in data set [10] (Mut6 cells (FIG. 15(c))) is “less sensitive”. Moreover, in data set [10] (Mut6 tumor cells viable after 96 hours (FIG. 7C)), the “live cells (%)” value amounted to 50%.
Consider `CC1C2CCCN2CCN1C(=O)c1ccc(Sc2ccc(F)cc2)c([N+](=O)[O-])c1` (stereo not shown) [DS-1-279, (4-((4-fluorophenyl)thio)-3-nitrophenyl)(1-methylhexahydropyrrolo[1,2-a]pyrazin-2(1H)-yl)methanone], for which the half-life at 2 μM in [11] amounted to 0.445 h. The EC50 in [10] (setting [13]) was 58 nM.
As for `O=C(NCCCN1CCOCC1)c1ccc(Sc2ccc(F)cc2)c([N+](=O)[O-])c1` [DS-1-283, 4-((4-fluorophenyl)thio)-N-(3-morpholinopropyl)-3-nitrobenzamide], the half-life at 2 μM in [11] worked out at 1.56 h. For the same compound, the EC50 in [10] (setting [13]) worked out at 42 nM.
`CCN1CCCC1CNC(=O)c1ccc(Sc2ccc(F)cc2)c(S(C)(=O)=O)c1` (stereo not shown) [DS-1-301, N-((1-ethylpyrrolidin-2-yl)methyl)-4-((4-fluorophenyl)thio)-3-(methylsulfonyl)benzamide]: in [11], the half-life at 2 μM is greater than 4 h. Besides, the EC50 in data set [10] (setting [13]) is 236 nM.
For `N#Cc1cc(C(=O)NCCN2CCOCC2)ccc1Oc1ccc(F)cc1` [DS-2-045, 3-cyano-4-(4-fluorophenoxy)-N-(2-morpholinoethyl)benzamide], the half-life at 2 μM in data set [11] was found to be 1.65 h. Also, the EC50 in data set [10] (setting [13]) amounted to 74 nM.
For `CCN1CCCC1CNC(=O)c1ccc(Sc2ccc(F)cc2)c(F)c1` (stereo not shown) [DS-2-053, N-((1-ethylpyrrolidin-2-yl)methyl)-3-fluoro-4-((4-fluorophenyl)thio)benzamide] the same measures were 0.683 h and 87 nM.
